The results in this text go back to patent US6486143B2, “6-amino- or 6-hydrazino-sulphonyl-3-quinolynyl-phosphonic acid compounds” (Les Laboratoires Servier, priority 2000, dated 2002).

What is called melting point is the temperature, or range, at which the solid turns liquid. As to `O=c1[nH]c2cc(C(F)(F)F)c(S(=O)(=O)N3CCCCC3)cc2cc1P(=O)(O)O` [Example 32, 2-Oxo-6-(1-piperidylsulphonyl)-7-(trifluoromethyl)-1,2-dihydro-3-quinolylphosphonic Acid], the melting point is over 260 °C.
